# In the NIST ThermoML archive (doi:10.1021/je8002207):
# ± gives the expanded uncertainty stated by the source.
# Tests used:
# [1] = Molar enthalpy of transition or fusion; conditions: Crystal; DSC
# [2] = Crystal; DTA
smiles,measurement,setting,value
CN[C@]1(c2ccccc2Cl)CCCCC1=O [(S)-ketamine],Molar enthalpy of transition or fusion,[1],6.86 ± 0.198 kcal/mol
same,Normal melting temperature,[2],121.0 ± 0.5 °C
CN[C@@]1(c2ccccc2Cl)CCCCC1=O [(R)-ketamine],Molar enthalpy of transition or fusion,[1],6.86 ± 0.198 kcal/mol
same,Normal melting temperature,[2],121.0 ± 0.5 °C
